Laboratory results from patent publication US6737383B1, “Herbicidal oxadiazolidines” (priority 1999, dated 2004).

Columns and labels:
blackgrass = assay: Test B pre/postemergence blackgrass; format: in vivo, Alopecurus myosuroides; conditions: for Plant response rating, Blackgrass: scale of 0 to 10 where 0 is no effect and 10 is complete control
How it was run: (§1)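 Test chemicals in a non-phytotoxic solvent mixture with surfactant were sprayed preemergence onto planted seeds and postemergence onto plants 2 to 18 cm tall (1- to 4-leaf stage). After twelve to sixteen days in a greenhouse, injury was visually rated against untreated controls from 0 (no effect) to 10 (complete control).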

velvetleaf = assay: Test B pre/postemergence velvetleaf; format: in vivo, Abutilon theophrasti; conditions: for Plant response rating, Velvetleaf: scale of 0 to 10 where 0 is no effect and 10 is complete control
How it was run: as §1

rice = assay: Test B flood test rice; format: in vivo, Oryza sativa
How it was run: (§2)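 Plants were grown to the 2-leaf stage before treatment with test chemical, then held in a greenhouse for twelve to sixteen days. Injury was visually rated against untreated controls on a 0–10 scale, where 0 is no effect and 10 is complete control.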

duck salad = assay: Test B flood test duck salad; format: in vivo, Heteranthera limosa
How it was run: as §2

surinam grass = assay: Test B pre/postemergence surinam grass; format: in vivo, Brachiaria decumbens; conditions: for Plant response rating, B. signalgrass: scale of 0 to 10 where 0 is no effect and 10 is complete control
How it was run: as §1

corn = assay: Test B pre/postemergence corn; format: in vivo, Zea mays; conditions: for Plant response rating, Corn: scale of 0 to 10 where 0 is no effect and 10 is complete control
How it was run: as §1

wheat = assay: Test B pre/postemergence wheat; format: in vivo, Triticum aestivum; conditions: for Plant response rating, Wheat: scale of 0 to 10 where 0 is no effect and 10 is complete control
How it was run: as §1

bedstraw = assay: Test B pre/postemergence bedstraw; format: in vivo, Galium aparine; conditions: Postemergence, scale 0 to 10 (0 no effect, 10 complete control)
How it was run: as §1

smallflower flatsedge = assay: Test B flood test smallflower flatsedge; format: in vivo, Cyperus difformis
How it was run: as §2

giant foxtail = assay: Test B pre/postemergence giant foxtail; format: in vivo, Setaria faberii; conditions: for Plant response rating, Giant foxtail: scale of 0 to 10 where 0 is no effect and 10 is complete control
How it was run: as §1

wild oat = assay: Test B pre/postemergence wild oat; format: in vivo, Avena fatua; conditions: for Plant response rating, Wild oats: scale of 0 to 10 where 0 is no effect and 10 is complete control
How it was run: as §1

crabgrass = assay: Test B pre/postemergence crabgrass; format: in vivo, Digitaria sanguinalis; conditions: for Plant response rating, Crabgrass: scale of 0 to 10 where 0 is no effect and 10 is complete control
How it was run: as §1

purple nutsedge = assay: Test B pre/postemergence purple nutsedge; format: in vivo, Cyperus rotundus; conditions: for Plant response rating, Nutsedge: scale of 0 to 10 where 0 is no effect and 10 is complete control
How it was run: as §1

morningglory = assay: Test B pre/postemergence morningglory; format: in vivo, Ipomoea hederacea; conditions: for Plant response rating, Morningglory: scale of 0 to 10 where 0 is no effect and 10 is complete control
How it was run: as §1

soybean = assay: Test B pre/postemergence soybean; format: in vivo, Glycine max; conditions: for Plant response rating, Soybean: scale of 0 to 10 where 0 is no effect and 10 is complete control
How it was run: as §1

pigweed = assay: Test B pre/postemergence pigweed; format: in vivo, Amaranthus retroflexus; conditions: for Plant response rating, Redroot pigweed: scale of 0 to 10 where 0 is no effect and 10 is complete control
How it was run: as §1

[1] = Postemergence, Rate 31 g/ha, visual rating, scale 0 to 10 (0 no effect, 10 complete control)
[2] = Postemergence, Rate 250 g/ha, scale 0 to 10
[3] = Preemergence, Rate 31 g/ha, visual rating, scale 0 to 10 (0 no effect, 10 complete control)
[4] = Preemergence, Rate 250 g/ha, scale 0 to 10, 0 is no effect, 10 is complete control
[5] = Rate 62 g/ha, Postemergence, scale 0 to 10 (0 no effect, 10 complete control)
[6] = Rate 125 g/ha, Postemergence, scale 0 to 10, 0 is no effect, 10 is complete control
[7] = Rate 31 g/ha, Pre-emergence section (flood test species), scale 0 to 10
[8] = Rate 62 g/ha, flood test species, Pre-emergence, visual evaluation after twelve to sixteen days
[9] = Rate 125 g/ha, under heading Pre-emergence, flood test species, visual evaluation after twelve to sixteen days
[10] = Rate 250 g/ha, Pre-emergence (flood test species), scale 0 to 10, 0 is no effect, 10 is complete control

Cc1nc(C)c(C(C)n2c(=O)on(C(=O)N(c3ccccc3)C(C)C)c2=O)s1 (stereo not shown) [Compound 442]
Blackgrass plant response rating (blackgrass; [1]): 0 | Blackgrass plant response rating (blackgrass; [2]): 0 | Blackgrass plant response rating (blackgrass; [3]): 0 | Plant response rating, Blackgrass (blackgrass; Preemergence, Rate 62 g/ha): 0 | Plant response rating, Blackgrass (blackgrass; Preemergence, Rate 125 g/ha): 0 | Blackgrass plant response rating (blackgrass; [4]): 0 | Blackgrass plant response rating (blackgrass; [5]): 0 | Blackgrass plant response rating (blackgrass; [6]): 0 | Velvetleaf plant response rating (velvetleaf; [1]): 0 | Velvetleaf plant response rating (velvetleaf; [2]): 0 | Plant response rating, Velvetleaf (velvetleaf; Preemergence, Rate 62 g/ha): 0 | Plant response rating, Velvetleaf (velvetleaf; Preemergence, Rate 125 g/ha): 0 | Velvetleaf plant response rating (velvetleaf; [4]): 0 | Velvetleaf plant response rating (velvetleaf; [5]): 0 | Velvetleaf plant response rating (velvetleaf; [6]): 0 | Rice plant response rating (rice; [7]): 0 | Plant response rating, Rice (0 to 10 scale, 0 is no effect, 10 is complete control) (rice; [8]): 0 | Rice plant response rating (0 to 10 scale, 0 is no effect, 10 is complete control) (rice; [9]): 0 | Rice plant response rating (rice; [10]): 0 | Ducksalad plant response rating (duck salad; [7]): 0 | Plant response rating, Ducksalad (0 to 10 scale, 0 is no effect, 10 is complete control) (duck salad; [8]): 0 | Ducksalad plant response rating (0 to 10 scale, 0 is no effect, 10 is complete control) (duck salad; [9]): 0 | Ducksalad plant response rating (duck salad; [10]): 0 | B. signalgrass plant response rating (surinam grass; [1]): 0 | B. signalgrass plant response rating (surinam grass; Postemergence, Rate 250 g/ha, scale 0 to 10, 0 no effect, 10 complete control): 0 | B. signalgrass plant response rating (surinam grass; [3]): 0 | Plant response rating, B. signalgrass (surinam grass; Preemergence, Rate 62 g/ha): 0 | Plant response rating, B. signalgrass (surinam grass; Preemergence, Rate 125 g/ha): 0 | B. signalgrass plant response rating (surinam grass; [4]): 0 | B. signalgrass plant response rating (surinam grass; [5]): 0 | B. signalgrass plant response rating (surinam grass; [6]): 0 | Corn plant response rating (corn; [1]): 0 | Corn plant response rating (corn; [2]): 0 | Corn plant response rating (corn; [3]): 0 | Plant response rating, Corn (corn; Preemergence, Rate 62 g/ha): 0 | Plant response rating, Corn (corn; Preemergence, Rate 125 g/ha): 0 | Corn plant response rating (corn; [4]): 0 | Corn plant response rating (corn; [5]): 0 | Corn plant response rating (corn; [6]): 0 | Wheat plant response rating (wheat; [1]): 0 | Wheat plant response rating (wheat; [2]): 0 | Plant response rating, Wheat (wheat; Preemergence, Rate 62 g/ha): 0 | Plant response rating, Wheat (wheat; Preemergence, Rate 125 g/ha): 0 | Wheat plant response rating (wheat; [4]): 0 | Wheat plant response rating (wheat; [5]): 0 | Wheat plant response rating (wheat; [6]): 0 | Bedstraw plant response rating (bedstraw; Rate 31 g/ha, visual rating): 0 | Bedstraw plant response rating (bedstraw; Rate 62 g/ha): 0 | S. Flatsedge plant response rating (smallflower flatsedge; [7]): 0 | Plant response rating, S. Flatsedge (0 to 10 scale, 0 is no effect, 10 is complete control) (smallflower flatsedge; [8]): 0 | S. Flatsedge plant response rating (0 to 10 scale, 0 is no effect, 10 is complete control) (smallflower flatsedge; [9]): 0 | S. Flatsedge plant response rating (smallflower flatsedge; [10]): 0 | Giant foxtail plant response rating (giant foxtail; [1]): 0 | Giant foxtail plant response rating (giant foxtail; [2]): 0 | Giant foxtail plant response rating (giant foxtail; [3]): 0 | Plant response rating, Giant foxtail (giant foxtail; Preemergence, Rate 62 g/ha): 0 | Plant response rating, Giant foxtail (giant foxtail; Preemergence, Rate 125 g/ha): 0 | Giant foxtail plant response rating (giant foxtail; [4]): 3 | Giant foxtail plant response rating (giant foxtail; [5]): 0 | Giant foxtail plant response rating (giant foxtail; [6]): 0 | Wild oats plant response rating (wild oat; [1]): 0 | Wild oats plant response rating (wild oat; [2]): 0 | Plant response rating, Wild oats (wild oat; Preemergence, Rate 62 g/ha): 0 | Plant response rating, Wild oats (wild oat; Preemergence, Rate 125 g/ha): 0 | Wild oats plant response rating (wild oat; [4]): 0 | Wild oats plant response rating (wild oat; [5]): 0 | Wild oats plant response rating (wild oat; [6]): 0 | Crabgrass plant response rating (crabgrass; [1]): 0 | Crabgrass plant response rating (crabgrass; [2]): 0 | Crabgrass plant response rating (crabgrass; [3]): 5 | Plant response rating, Crabgrass (crabgrass; Preemergence, Rate 62 g/ha): 7 | Plant response rating, Crabgrass (crabgrass; Preemergence, Rate 125 g/ha): 8 | Crabgrass plant response rating (crabgrass; [4]): 8 | Crabgrass plant response rating (crabgrass; [5]): 0 | Crabgrass plant response rating (crabgrass; [6]): 0 | Nutsedge plant response rating (purple nutsedge; [1]): 0 | Nutsedge plant response rating (purple nutsedge; [2]): 0 | Plant response rating, Nutsedge (purple nutsedge; Preemergence, Rate 62 g/ha): 0 | Plant response rating, Nutsedge (purple nutsedge; Preemergence, Rate 125 g/ha): 0 | Nutsedge plant response rating (purple nutsedge; [4]): 0 | Nutsedge plant response rating (purple nutsedge; [5]): 0 | Nutsedge plant response rating (purple nutsedge; [6]): 0 | Morningglory plant response rating (morningglory; [1]): 1 | Morningglory plant response rating (morningglory; [2]): 7 | Plant response rating, Morningglory (morningglory; Preemergence, Rate 62 g/ha): 0 | Plant response rating, Morningglory (morningglory; Preemergence, Rate 125 g/ha): 0 | Morningglory plant response rating (morningglory; [4]): 0 | Morningglory plant response rating (morningglory; [5]): 4 | Morningglory plant response rating (morningglory; [6]): 4 | Soybean plant response rating (soybean; [1]): 0 | Soybean plant response rating (soybean; [2]): 0 | Plant response rating, Soybean (soybean; Preemergence, Rate 62 g/ha): 0 | Plant response rating, Soybean (soybean; Preemergence, Rate 125 g/ha): 0 | Soybean plant response rating (soybean; [4]): 0 | Soybean plant response rating (soybean; [5]): 0 | Soybean plant response rating (soybean; [6]): 0 | Redroot pigweed plant response rating (pigweed; [1]): 0 | Redroot pigweed plant response rating (pigweed; [2]): 0 | Plant response rating, Redroot pigweed (pigweed; Preemergence, Rate 62 g/ha): 0 | Plant response rating, Redroot pigweed (pigweed; Preemergence, Rate 125 g/ha): 0 | Redroot pigweed plant response rating (pigweed; [4]): 0 | Redroot pigweed plant response rating (pigweed; [5]): 0 | Redroot pigweed plant response rating (pigweed; [6]): 0
